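All cell lines were grown in 96-well plates and treated with compound for 48 hours. GI50 = concentration required for 50% inhibition of growth.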 Calls of active or inactive are those of the source. No stated cut-off is given here; in the data, active = GI50 up to about 1.1 µM and inactive = higher.
Legend:
Test in all cases: DTP human tumour cell line panel, 48 h
A498 = system: A498
ACHN = system: ACHN
CAKI-1 = system: CAKI-1
COLO 205 = system: COLO 205
HCC 2998 = system: HCC 2998
HCT-116 = system: HCT-116
HL-60 = system: HL-60
Hs-578T = system: Hs-578T
KM12 = system: KM12
LOX IMVI = system: LOX IMVI
MCF7 = system: MCF7
MDA-MB-231 = system: MDA-MB-231
MDA-MB-435 = system: MDA-MB-435
MOLT-4 = system: MOLT-4
OVCAR-5 = system: OVCAR-5
TK-10 = system: TK-10
UACC-257 = system: UACC-257
UO-31 = system: UO-31
M19-MEL = system: M19-MEL

SMILES | GI50 (A498) | GI50 (ACHN) | GI50 (CAKI-1) | GI50 (COLO 205) | GI50 (HCC 2998) | GI50 (HCT-116) | GI50 (HL-60) | GI50 (Hs-578T) | GI50 (KM12) | GI50 (LOX IMVI) | GI50 (MCF7) | GI50 (MDA-MB-231) | GI50 (MDA-MB-435) | GI50 (MOLT-4) | GI50 (OVCAR-5) | GI50 (TK-10) | GI50 (UACC-257) | GI50 (UO-31) | GI50 (M19-MEL)
COC1(OC)CCN(Cc2ccccc2)C1=O | 17.5 µM (inactive) | 6.28 µM (inactive) | 3.89 µM (inactive) | 4.54 µM (inactive) | 18.2 µM (inactive) | 3.68 µM (inactive) | 1.69 µM (inactive) | > 100 µM (inactive) | 17.4 µM (inactive) | 5.45 µM (inactive) | 4.39 µM (inactive) | 18.5 µM (inactive) | 15.6 µM (inactive) | 2.55 µM (inactive) | 17.7 µM (inactive) | 16 µM (inactive) | 14.2 µM (inactive) | 10.9 µM (inactive) | 
COc1cc(S(=O)(=O)Nc2nc(-c3ccc(N4C(=O)C(CC(=O)O)SC4c4ccccc4O)cc3)cs2)ccc1Cl (configuration not stated) | 29.1 µM (inactive) | > 100 µM (inactive) | > 100 µM (inactive) | 83.4 µM (inactive) | 9.93 µM (inactive) | 46.3 µM (inactive) | 15.3 µM (inactive) | > 100 µM (inactive) | 78.7 µM (inactive) | > 100 µM (inactive) | 42.5 µM (inactive) | > 100 µM (inactive) | 87.5 µM (inactive) | 49.5 µM (inactive) | > 100 µM (inactive) | > 100 µM (inactive) | 88.7 µM (inactive) | > 100 µM (inactive) | 
CN1N=C(c2ccncc2)OC1c1ccc(Cl)c(Cl)c1 (configuration not stated) | 82 µM (inactive) | > 100 µM (inactive) | > 100 µM (inactive) | > 100 µM (inactive) | > 100 µM (inactive) | > 100 µM (inactive) | 69.8 µM (inactive) | > 100 µM (inactive) | > 100 µM (inactive) | > 100 µM (inactive) | > 100 µM (inactive) | > 100 µM (inactive) | > 100 µM (inactive) | 44.5 µM (inactive) | > 100 µM (inactive) | > 100 µM (inactive) | > 100 µM (inactive) | > 100 µM (inactive) | 
CCCC(=O)NC(Nc1ccc(F)cc1)(C(F)(F)F)C(F)(F)F | > 100 µM (inactive) | 2.14 µM (inactive) | > 100 µM (inactive) | 7.1 µM (inactive) | 98.6 µM (inactive) | 19.8 µM (inactive) | 1.75 µM (inactive) | > 55 µM (inactive) | 2.49 µM (inactive) | 0.404 µM (active) | > 37.7 µM (inactive) | > 100 µM (inactive) | 1.25 µM (inactive) | 7.98 µM (inactive) | > 100 µM (inactive) | > 43.7 µM (inactive) | 8.2 µM (inactive) | 9.48 µM (inactive) | 
CCOC(=O)c1cc2c(OC(C)=O)ccc(OC(C)=O)c2s1 | 5.28 µM (inactive) | 1.61 µM (inactive) | 4.35 µM (inactive) | 2.17 µM (inactive) | 8.97 µM (inactive) | 2.81 µM (inactive) | 0.845 µM (active) | 1.69 µM (inactive) | 4.52 µM (inactive) | 0.891 µM (active) | 3.03 µM (inactive) | 2.02 µM (inactive) | 2.67 µM (inactive) | 2.58 µM (inactive) | 6.19 µM (inactive) | 6.82 µM (inactive) | 1.95 µM (inactive) | 1.43 µM (inactive) | 
CC#C[C@@]1(O)CCCCC1O (some centres not stated) | > 100 µM (inactive) | > 100 µM (inactive) |  | > 100 µM (inactive) | > 100 µM (inactive) | > 100 µM (inactive) | > 100 µM (inactive) |  | > 100 µM (inactive) | > 100 µM (inactive) |  |  |  | > 100 µM (inactive) |  | > 100 µM (inactive) | > 100 µM (inactive) | > 100 µM (inactive) | > 100 µM (inactive)
COC(=O)[C@@H]1C=C[C@H](OC2OC(COC(C)=O)C(OC(C)=O)C(OC(C)=O)C2OC(C)=O)n2c(=O)c3ccccc3c(=O)n21 (some centres not stated) | 12.2 µM (inactive) | 11.7 µM (inactive) | 3.45 µM (inactive) | 8.65 µM (inactive) | 16.1 µM (inactive) | 10.9 µM (inactive) | 3.95 µM (inactive) | 27.7 µM (inactive) | 10.7 µM (inactive) | 10.9 µM (inactive) | 8.61 µM (inactive) | > 10 µM (inactive) | 9.16 µM (inactive) | 11.8 µM (inactive) | 16 µM (inactive) | 2.91 µM (inactive) | 17.2 µM (inactive) | 14.4 µM (inactive) | 
Cc1ccc2c(c1)C1(C)OC(CC(N)C1O)O2 (configuration not stated) |  | > 100 µM (inactive) |  | > 100 µM (inactive) |  | > 100 µM (inactive) | > 100 µM (inactive) |  | > 100 µM (inactive) | > 100 µM (inactive) |  |  |  | > 100 µM (inactive) |  | > 100 µM (inactive) | > 100 µM (inactive) | > 100 µM (inactive) | > 100 µM (inactive)

From ChEMBL document CHEMBL1201862, “PubChem BioAssay data set” (2004)
